In the NIST ThermoML archive (doi:10.1016/j.jct.2015.04.024):

Assay: mn = molality of the nth substance listed, in mol/kg
Details: 75 kPa, Liquid, Buoyancy - hydrostatic balance with magnetic suspension - one sinker

NCC(=O)O [2-aminoacetic acid] + O
Details | mass density [kg/m3]
275.63 K, m1 = 0.02975 | 1000.98
275.63 K, m1 = 0.03917 | 1001.3
275.63 K, m1 = 0.05033 | 1001.69
275.63 K, m1 = 0.0596 | 1002
275.63 K, m1 = 0.07025 | 1002.37
275.63 K, m1 = 0.07948 | 1002.68
275.63 K, m1 = 0.089 | 1003.01
275.63 K, m1 = 0.09846 | 1003.34
276.13 K, m1 = 0.03055 | 1001.01
276.13 K, m1 = 0.04004 | 1001.34
276.13 K, m1 = 0.05063 | 1001.71
276.13 K, m1 = 0.05984 | 1002.02
276.13 K, m1 = 0.06886 | 1002.32
276.13 K, m1 = 0.08159 | 1002.76
276.13 K, m1 = 0.08976 | 1003.05
276.13 K, m1 = 0.1001 | 1003.39
276.69 K, m1 = 0.02962 | 1000.98
276.69 K, m1 = 0.03964 | 1001.32
276.69 K, m1 = 0.04889 | 1001.63
276.69 K, m1 = 0.06028 | 1002.02
276.69 K, m1 = 0.06972 | 1002.34
276.69 K, m1 = 0.07961 | 1002.68
276.69 K, m1 = 0.0885 | 1002.98
276.69 K, m1 = 0.1008 | 1003.39
277.12 K, m1 = 0.02962 | 1000.96
277.12 K, m1 = 0.03964 | 1001.31
277.12 K, m1 = 0.04889 | 1001.62
277.12 K, m1 = 0.06028 | 1002.01
277.12 K, m1 = 0.06972 | 1002.32
277.12 K, m1 = 0.07961 | 1002.66
277.12 K, m1 = 0.0885 | 1002.97
277.12 K, m1 = 0.1008 | 1003.38
277.67 K, m1 = 0.02975 | 1000.98
277.67 K, m1 = 0.03917 | 1001.3
277.67 K, m1 = 0.05033 | 1001.68
277.67 K, m1 = 0.0596 | 1002
277.67 K, m1 = 0.07025 | 1002.36
277.67 K, m1 = 0.07948 | 1002.67
277.67 K, m1 = 0.085 | 1002.85
277.67 K, m1 = 0.09846 | 1003.32
278.12 K, m1 = 0.02966 | 1000.97
278.12 K, m1 = 0.04207 | 1001.38
278.12 K, m1 = 0.05006 | 1001.65
278.12 K, m1 = 0.06152 | 1002.04
278.12 K, m1 = 0.06869 | 1002.28
278.12 K, m1 = 0.0814 | 1002.71
278.12 K, m1 = 0.08635 | 1002.88
278.12 K, m1 = 0.09984 | 1003.33
278.65 K, m1 = 0.02951 | 1000.95
278.65 K, m1 = 0.04154 | 1001.35
278.65 K, m1 = 0.04986 | 1001.64
278.65 K, m1 = 0.05429 | 1001.78
278.65 K, m1 = 0.07168 | 1002.36
278.65 K, m1 = 0.08119 | 1002.67
278.65 K, m1 = 0.0895 | 1002.96
278.65 K, m1 = 0.09674 | 1003.2

CCC(N)C(=O)O (stereo not drawn) [(.+-.)-α-aminobutyric acid] + O
Details | mass density [kg/m3]
275.63 K, m1 = 0.03017 | 1000.84
275.63 K, m1 = 0.03851 | 1001.09
275.63 K, m1 = 0.04794 | 1001.36
275.63 K, m1 = 0.06041 | 1001.72
275.63 K, m1 = 0.072 | 1002.07
275.63 K, m1 = 0.07612 | 1002.18
275.63 K, m1 = 0.08971 | 1002.58
275.63 K, m1 = 0.0967 | 1002.78
276.13 K, m1 = 0.03035 | 1000.85
276.13 K, m1 = 0.03896 | 1001.1
276.13 K, m1 = 0.04967 | 1001.42
276.13 K, m1 = 0.05823 | 1001.67
276.13 K, m1 = 0.07075 | 1002.03
276.13 K, m1 = 0.08046 | 1002.31
276.13 K, m1 = 0.0901 | 1002.6
276.13 K, m1 = 0.0968 | 1002.78
276.69 K, m1 = 0.0256 | 1000.72
276.69 K, m1 = 0.03484 | 1000.99
276.69 K, m1 = 0.04383 | 1001.25
276.69 K, m1 = 0.05138 | 1001.47
276.69 K, m1 = 0.06131 | 1001.77
276.69 K, m1 = 0.06872 | 1001.99
276.69 K, m1 = 0.0783 | 1002.24
276.69 K, m1 = 0.08694 | 1002.51
277.12 K, m1 = 0.03035 | 1000.86
277.12 K, m1 = 0.03896 | 1001.12
277.12 K, m1 = 0.04967 | 1001.42
277.12 K, m1 = 0.05823 | 1001.68
277.12 K, m1 = 0.07075 | 1002.04
277.12 K, m1 = 0.08046 | 1002.31
277.12 K, m1 = 0.0901 | 1002.6
277.12 K, m1 = 0.0968 | 1002.79
277.67 K, m1 = 0.0256 | 1000.71
277.67 K, m1 = 0.03484 | 1000.99
277.67 K, m1 = 0.04383 | 1001.25
277.67 K, m1 = 0.05138 | 1001.47
277.67 K, m1 = 0.06131 | 1001.76
277.67 K, m1 = 0.06872 | 1001.99
277.67 K, m1 = 0.0783 | 1002.25
277.67 K, m1 = 0.08694 | 1002.51
278.12 K, m1 = 0.03122 | 1000.86
278.12 K, m1 = 0.04081 | 1001.16
278.12 K, m1 = 0.04913 | 1001.38
278.12 K, m1 = 0.05983 | 1001.72
278.12 K, m1 = 0.07098 | 1002.05
278.12 K, m1 = 0.08031 | 1002.3
278.12 K, m1 = 0.09051 | 1002.6
278.12 K, m1 = 0.09974 | 1002.85
278.65 K, m1 = 0.0312 | 1000.86
278.65 K, m1 = 0.04081 | 1001.12
278.65 K, m1 = 0.04913 | 1001.35
278.65 K, m1 = 0.05983 | 1001.67
278.65 K, m1 = 0.07098 | 1002
278.65 K, m1 = 0.08031 | 1002.27
278.65 K, m1 = 0.09051 | 1002.57
278.65 K, m1 = 0.0997 | 1002.85

CC(N)C(=O)O (stereo not drawn) [DL-2-aminopropanoic acid] + O
Details | mass density [kg/m3]
275.63 K, m1 = 0.0294 | 1000.85
275.63 K, m1 = 0.04005 | 1001.17
275.63 K, m1 = 0.04974 | 1001.47
275.63 K, m1 = 0.0592 | 1001.76
275.63 K, m1 = 0.0695 | 1002.07
275.63 K, m1 = 0.08475 | 1002.53
275.63 K, m1 = 0.0911 | 1002.72
275.63 K, m1 = 0.1019 | 1003.05
276.13 K, m1 = 0.03044 | 1000.88
276.13 K, m1 = 0.04034 | 1001.19
276.13 K, m1 = 0.04918 | 1001.46
276.13 K, m1 = 0.05989 | 1001.78
276.13 K, m1 = 0.07063 | 1002.11
276.13 K, m1 = 0.07952 | 1002.37
276.13 K, m1 = 0.09022 | 1002.69
276.13 K, m1 = 0.09952 | 1002.98
276.69 K, m1 = 0.03006 | 1000.88
276.69 K, m1 = 0.04009 | 1001.19
276.69 K, m1 = 0.04963 | 1001.48
276.69 K, m1 = 0.0606 | 1001.81
276.69 K, m1 = 0.0711 | 1002.13
276.69 K, m1 = 0.07938 | 1002.37
276.69 K, m1 = 0.08509 | 1002.54
276.69 K, m1 = 0.09839 | 1002.95
277.12 K, m1 = 0.03044 | 1000.89
277.12 K, m1 = 0.04034 | 1001.19
277.12 K, m1 = 0.0492 | 1001.46
277.12 K, m1 = 0.05989 | 1001.78
277.12 K, m1 = 0.07063 | 1002.1
277.12 K, m1 = 0.07952 | 1002.37
277.12 K, m1 = 0.09022 | 1002.7
277.12 K, m1 = 0.09952 | 1002.97
277.67 K, m1 = 0.02944 | 1000.85
277.67 K, m1 = 0.04005 | 1001.17
277.67 K, m1 = 0.04974 | 1001.46
277.67 K, m1 = 0.0592 | 1001.74
277.67 K, m1 = 0.0695 | 1002.06
277.67 K, m1 = 0.08475 | 1002.51
277.67 K, m1 = 0.0911 | 1002.7
277.67 K, m1 = 0.1019 | 1003.04
278.12 K, m1 = 0.03078 | 1000.9
278.12 K, m1 = 0.03875 | 1001.11
278.12 K, m1 = 0.04963 | 1001.45
278.12 K, m1 = 0.05968 | 1001.76
278.12 K, m1 = 0.0709 | 1002.09
278.12 K, m1 = 0.07928 | 1002.34
278.12 K, m1 = 0.09099 | 1002.69
278.12 K, m1 = 0.1006 | 1002.98
278.65 K, m1 = 0.03078 | 1000.89
278.65 K, m1 = 0.03875 | 1001.13
278.65 K, m1 = 0.04963 | 1001.45
278.65 K, m1 = 0.05968 | 1001.75
278.65 K, m1 = 0.0709 | 1002.09
278.65 K, m1 = 0.07928 | 1002.34
278.65 K, m1 = 0.09099 | 1002.68
278.65 K, m1 = 0.1006 | 1002.96
